Literature values as cited in paper PMC6151732, “A New Noncanonical Anionic Peptide That Translocates a Cellular Blood–Brain Barrier Model” (Molecules : A Journal of Synthetic Chemistry and Natural …, 2017).

Test system: brain
Description: Dengue virus type-2 capsid (DEN2C) protein-derived membrane-active peptides have been thoroughly studied by our group. […] An additional study was performed using the four α-helical domains of the DEN2C protein (α1, α2, α3 and α4) to identify trans-BBB peptides. […] PepH3, a hydrophobic peptide, is able to transcytose across the cell, while other peptides accumulate inside the endothelial membrane ...

Substance: AGILKRW [PepH3]
- Brain uptake: high brain uptake
